The values below come from US6066484A, “Purine nucleosidase” (Suntory Limited, priority 1996, dated 2000).

Assay type in all cases: biochemical, Ochrobactrum anthropi
In assay [1] the test system is purine nucleosidase. Briefly: Effect of metal ions on purine nucleosidase. As to conditions: for Relative activity: 1 mM metal, pH 4.5, 30° C., 40 minutes, not added = 100.0; for Inhibition or activation of purine nucleosidase by metal ions (in words): 1 mM metal ion. On the procedure:
(§1) The reaction solution (200 μl) contained 0.5 mM of adenosine or inosine or 0.25 mM of guanosine as the substrate, 50 mM of acetate buffer at pH 4.5 and a sufficient amount of enzyme. The reaction was initiated by addition of the enzyme, and the reaction was conducted at 50° C. for 5 minutes. The reaction was terminated by addition of 20 μl of 15% perchloric acid, and after centrifugation (35,000 rpm, 10 min) the supernatant was analyzed qualitatively by thin-layer chromatography (TLC) and quantitatively by high-performance liquid chromatography. The analysis methods were as follows.
Various metal ions were added to the activity measuring solution in an amount of 1 mM to measure the activity. The reaction was conducted at pH 4.5, 30° C. for 40 minutes.

In assay [2] the test system is purine nucleosidase. Briefly: Effect of inhibitors on purine nucleosidase. The settings on record: 1 mM inhibitor; for Relative activity: pH 4.5, 30° C., 20 minutes, not added = 100.0. The procedure:
as §1
The activity was measured after adding 1 mM of different inhibitors to the activity measurement solution. The reaction was conducted at pH 4.5, 30° C. for 20 minutes.

In assay [3] the test system is purine nucleosidase. Briefly: Substrate specificity of purine nucleosidase by thin-layer chromatography. More on the design: key to Relative activity: -: not reacted; +: <10%; ++: <31%; +++: <50%; ++++: >50%. The settings on record: thin-layer chromatography. The procedure: as §1
(1) Thin-layer chromatography
Plate: Kieselgel 60F254 (Merk)
Developing solution: n-butanol/isopropanol/H2 O/NH4 OH=1:7:2:0.2 (v/v/v/v) (for adenosine and guanosine substrates), n-butanol/acetic acid/H2 O=5:1:1 (v/v/v) (for inosine substrate)
The substrate specificity of the purine nucleosidase was determined by thin-layer chromatography (TLC).
The specific activity was measured under conditions of 50° C., pH 4.5. The Km and Vmax were measured under conditions of 30° C., pH 4.5. The relative activity was expressed according to the following measurement method.

Entries after “also recorded” stand apart in the source; their conditions may differ.

`[Ba+2].[Cl-].[Cl-]` [BaCl2]: the Relative activity in the assay on purine nucleosidase [1] turned out to be 86.1%.

For `O=[As]([O-])([O-])O.[Na+].[Na+]` [sodium arsenate], the Relative activity in the assay on purine nucleosidase [2] worked out at 69.4%.

With `[Ca+2].[Cl-].[Cl-]` [CaCl2], in the assay on purine nucleosidase [1], the Relative activity stood at 101.7%.

Turning to `Cc1cn([C@H]2C[C@H](O)[C@@H](CO)O2)c(=O)[nH]c1=O` [thymidine], in the assay on purine nucleosidase [3], the Relative activity entry is recorded as “-”.

Take 2'-chloroadenosine: the Relative activity result in the assay with purine nucleosidase [3] is recorded as “++++ (>50%)”.

With `NC(=O)c1ccc[n+]([C@@H]2O[C@H](COP(=O)([O-])OP(=O)(O)OC[C@H]3O[C@@H](n4cnc5c(N)ncnc54)[C@H](OP(=O)(O)O)[C@@H]3O)[C@@H](O)[C@H]2O)c1` [β-NADP], the Relative activity entry in the assay on purine nucleosidase [3] is “-”.

Turning to 5'-bromouridine, the Relative activity result in the assay with purine nucleosidase [3] is reported as “-”.

For `[Cl][Sn][Cl]` [SnCl2], the Relative activity with purine nucleosidase [1] is 113.2%.

For `c1cnc2c(c1)ccc1cccnc12` [o-phenanthroline], the Relative activity in the assay on purine nucleosidase [2] amounted to 78.3%.

Regarding `Nc1ccn([C@@H]2O[C@H](CO)[C@@H](O)[C@H]2OP(=O)(O)O)c(=O)n1` [2'-CMP], the Relative activity result in the assay on purine nucleosidase [3] is recorded as “+ (<10%)”.

As for `O=c1[nH]cnc2c1ncn2[C@@H]1O[C@H](CO)[C@@H](O)[C@H]1OP(=O)(O)O` [2'-IMP], in the assay with purine nucleosidase [3], the Relative activity entry was “-”.

For `O=c1[nH]cc([C@@H]2O[C@H](CO)[C@@H](O)[C@H]2O)c(=O)[nH]1` [pseudouridine], the Relative activity result with purine nucleosidase [3] was “-”.

Consider `NC(=O)c1ccc[n+]([C@@H]2O[C@H](COP(=O)([O-])OP(=O)(O)OC[C@H]3O[C@@H](n4cnc5c(N)ncnc54)[C@H](O)[C@@H]3O)[C@@H](O)[C@H]2O)c1` [β-NAD, β-nicotinamide adenine dinucleotide], for which, in the assay on purine nucleosidase [3], the Relative activity entry is reported as “+ (<10%)”.

Take `[Cl][Pb][Cl]` [PbCl2]: the Relative activity with purine nucleosidase [1] came out at 111.0%.

Regarding `[Cl][Al]([Cl])[Cl]` [AlCl3], in the assay on purine nucleosidase [1], the Relative activity was determined as 73.6%.

As to `[Cl][Hg][Cl]` [HgCl2], the “Inhibition or activation of purine nucleosidase by metal ions (in words)” value (from here on “Inhibition or activation”) in the assay on purine nucleosidase [1] (listed as Hg^2+) was “Inhibition occurred; also recorded: Inhibited”. In the assay on purine nucleosidase [1], the Relative activity worked out at 39.4%.

As to `O=C1CCC(=O)N1Br` [N-bromosuccimide], the Relative activity in the assay on purine nucleosidase [2] worked out at 113.7%.

For the compound `[N-]=[N+]=[N-]` [sodium azide], in the assay with purine nucleosidase [2], the “Inhibition of purine nucleosidase (in words)” value is given as “Inhibition occurred; also recorded: inhibited” and the Relative activity is recorded as 72.9%.

For `[Cl-].[Rb+]` [RbCl], the Relative activity with purine nucleosidase [1] is listed as 106.5%.

In the case of `O=c1[nH]cnc2c1ncn2[C@@H]1O[C@H](COP(=O)(O)OP(=O)(O)O)[C@@H](O)[C@H]1O` [5'-IDP], the Relative activity entry in the assay on purine nucleosidase [3] is given as “-”.

With `[F-].[Na+]` [sodium fluoride], in the assay on purine nucleosidase [2], the “Inhibition of purine nucleosidase (in words)” value is recorded as “Inhibition occurred; also recorded: inhibited” and the Relative activity was found to be 62.2%.

Take `Nc1ncnc2c1ncn2[C@@H]1O[C@H](CO)[C@@H](OP(=O)(O)O)[C@H]1O` [3'-AMP, 3'-adenosine monophosphate]: the Relative activity result in the assay on purine nucleosidase [3] is “++ (<31%)”.

Regarding `[Cl][Mn][Cl]` [MnCl2], the “Inhibition or activation” value with purine nucleosidase [1] (listed as Mn^2+) is reported as “Inhibition occurred; also recorded: Inhibited”. Moreover, the Relative activity with purine nucleosidase [1] is 65.5%.

With `[Cl-].[Cl-].[Co+2]` [CoCl2], the Relative activity with purine nucleosidase [1] was found to be 82.9%.

With `Cl.NO` [NH2 OH·HCl], the Relative activity in the assay on purine nucleosidase [2] is 106.6%.

For the compound `Nc1ccn([C@@H]2O[C@H](CO)[C@@H](O)[C@H]2O)c(=O)n1` [cytidine], in the assay on purine nucleosidase [3], the Relative activity result is “-”.

For `[Cl-].[Li+]` [LiCl], in the assay with purine nucleosidase [1], the Relative activity is 103.0%.

As for `[Cl][Ni][Cl]` [NiCl2], in the assay on purine nucleosidase [1], the Relative activity worked out at 91.3%.

Take `O=S(=O)([O-])[O-].[Cu+2]` [CuSO4]: in the assay on purine nucleosidase [1] (listed as Cu^2+), the “Inhibition or activation” value is on record as “Inhibition occurred; also recorded: Inhibited”. Further, the Relative activity in the assay on purine nucleosidase [1] was 42.7%.

For `CCN1C(=O)C=CC1=O` [N-ethylmaleimide], the Relative activity in the assay on purine nucleosidase [2] is reported as 107.9%.

Consider `NNc1ccccc1` [phenylhydrazine], for which the Relative activity with purine nucleosidase [2] is listed as 100.4%.

As to `[Cl-].[Cs+]` [CsCl], the Relative activity in the assay on purine nucleosidase [1] amounted to 106.9%.

On to `NC(=O)c1ccc[n+]([C@@H]2O[C@H](COP(=O)([O-])O)[C@@H](O)[C@H]2O)c1` [β-NMN], for which the Relative activity result with purine nucleosidase [3] is on record as “-”.

Take `O=c1[nH]c(=O)c2ncn([C@@H]3O[C@H](COP(=O)(O)O)[C@@H](O)[C@H]3O)c2[nH]1` [5'-XMP]: the Relative activity result with purine nucleosidase [3] is “+ (<10%)”.

For the compound `O=c1ccn([C@@H]2O[C@H](CO)[C@@H](O)[C@H]2O)c(=O)[nH]1` [uridine], the Relative activity result in the assay with purine nucleosidase [3] is “-”.

As to `O=S(=O)([O-])[O-].[Zn+2]` [ZnSO4], in the assay on purine nucleosidase [1] (listed as Zn^2+), the “Inhibition or activation” value is on record as “Inhibition occurred; also recorded: Inhibited”. Also, the Relative activity with purine nucleosidase [1] stood at 74.9%.

Regarding `O=c1ccn([C@H]2C[C@H](O)[C@@H](CO)O2)c(=O)[nH]1` [2'-deoxyuridine], the Relative activity entry in the assay with purine nucleosidase [3] is given as “-”.

With `Nc1ccn([C@@H]2O[C@H](COP(=O)(O)O)[C@@H](O)[C@H]2O)c(=O)n1` [5'-CMP], in the assay on purine nucleosidase [3], the Relative activity result is “-”.

`O=S(=O)([O-])[O-].[Be+2]` [BeSO4]: the Relative activity with purine nucleosidase [1] is on record as 88.9%.

Take `Nc1ncnc2c1ncn2[C@H]1C[C@H](O)[C@@H](CO)O1` [2'-deoxyadenosine]: the Relative activity result with purine nucleosidase [3] is on record as “++ (<31%)”.

`Oc1cccc2cccnc12` [8-hydroxyquinoline]: the Relative activity in the assay with purine nucleosidase [2] was 8.5%.

Turning to `Nc1ncnc2c1ncn2[C@@H]1O[C@H](CO)C[C@H]1O` [cordycepin], the Relative activity entry in the assay with purine nucleosidase [3] is recorded as “++ (<31%)”.

On to `Nc1ncnc2c1ncn2[C@@H]1O[C@H](COP(=O)(O)O)[C@@H](O)[C@H]1O` [5'-AMP, 5'-adenosine monophosphate], for which the Relative activity result in the assay on purine nucleosidase [3] is on record as “++ (<31%)”.

As to `O=C(O)CI` [iodoacetic acid], the Relative activity with purine nucleosidase [2] was 99.4%.

For the compound `Nc1nc2c(ncn2[C@@H]2O[C@H](COP(=O)(O)O)[C@@H](O)[C@H]2O)c(=O)[nH]1` [5'-GMP, 5'-guanosine monophosphate], the Relative activity result in the assay with purine nucleosidase [3] is given as “+ (<10%)”.

Turning to `NC(=O)c1ccc[n+]([C@@H]2O[C@H](COP(=O)([O-])OP(=O)(O)OC[C@H]3O[C@@H](n4cnc5c(=O)[nH]cnc54)[C@H](O)[C@@H]3O)[C@@H](O)[C@H]2O)c1` [deamino NAD], in the assay with purine nucleosidase [3], the Relative activity result is reported as “-”.

Regarding `NNC(N)=O` [semicarbazide], in the assay on purine nucleosidase [2], the Relative activity worked out at 103.4%.

As to `O=S(=O)([O-])[O-].[Ag+].[Ag+]` [Ag2 SO4], the “Inhibition or activation” value in the assay with purine nucleosidase [1] (listed as Ag^+) is given as “Inhibition occurred; also recorded: Inhibited”. Also, the Relative activity in the assay on purine nucleosidase [1] worked out at 31.6%.

Turning to `O=C(O)c1cc(SSc2ccc([N+](=O)[O-])c(C(=O)O)c2)ccc1[N+](=O)[O-]` [DTNB, 5,5'-dithiobis(2-nitrobenzoic acid)], in the assay with purine nucleosidase [2], the “Inhibition of purine nucleosidase (in words)” value is reported as “Inhibition occurred; also recorded: inhibited” and the Relative activity came to 37.4%.

Take `[Cl-].[K+]` [KCl]: in the assay with purine nucleosidase [1], the Relative activity was 100.9%.

`O=[Se](O)O` [sodium selenite]: the “Inhibition of purine nucleosidase (in words)” value in the assay with purine nucleosidase [2] is reported as “Inhibition occurred; also recorded: inhibited”.

With `O=c1ccn([C@@H]2O[C@H](COP(=O)(O)O)[C@@H](O)[C@H]2O)c(=O)[nH]1` [5'-UMP], in the assay with purine nucleosidase [3], the Relative activity entry is “-”.

In the case of `O=C(O)c1cc[c]([Hg][Cl])cc1` [p-CMB], the Relative activity in the assay on purine nucleosidase [2] is given as 80.2%.

Regarding `O=S(=O)([O-])[O-].[Fe+2]` [FeSO4], the Relative activity in the assay with purine nucleosidase [1] came out at 92.6%.

For `[Cl-].[Cl-].[Mg+2]` [MgCl2], the Relative activity in the assay with purine nucleosidase [1] is recorded as 91.6%.

Turning to `[Cl-].[Na+]` [NaCl], the Relative activity with purine nucleosidase [1] stood at 93.3%.

With `O=C(O)CN(CCN(CC(=O)O)CC(=O)O)CC(=O)O` [EDTA-Na2], the Relative activity in the assay with purine nucleosidase [2] came out at 54.4%.

Regarding `Nc1ncnc2c1ncn2[C@@H]1O[C@H](CO)[C@@H](O)[C@H]1OP(=O)(O)O` [2'-AMP, 2'-adenosine monophosphate], the Relative activity result in the assay on purine nucleosidase [3] is listed as “++ (<31%)”.

For the compound `[Cl][Fe]([Cl])[Cl]` [FeCl3], the Relative activity in the assay with purine nucleosidase [1] is recorded as 100.0%.

As to `[Cl][Cd][Cl]` [CdCl2], in the assay on purine nucleosidase [1], the Relative activity came out at 124.9%.
